Legend:
[1] = system: normal cardiac myoblast H9c2 cells
Experimental: Briefly, 96 well microtiter plates were inoculated with the specified human cancer cell lines in RPMI 1640 medium containing 5% fetal bovine serum and 2 mM L-glutamine at the specified plating densities. The microtiter plates were incubated at 37°C, 5% CO2, and 100% relative humidity for 24 h. The test compounds were solubilized in DMSO at 400-fold the desired final maximum test concentration, diluted with complete medium containing gentamicin and added to the wells of the microtiter plates to achieve the final desired compound concentration, then incubated for an additional 48 h at the same incubation conditions. The media were removed, the cells were fixed then stained with sulforhodamine B and the unbound dye was removed by washing with acetic acid. The bound dye was resolubilized with trizma base and the absorbance at 515 nm was measured. Cells were stained with the WST-1 cell proliferation reagent instead of sulforhodamine B in some experiments and absorbance were measured at 440 nm. The three dose response parameters GI50, TGI and LC50 were calculated for each experimental compound as follows [48]: For values where Ti ≥ Tz the formula is [ (Ti-Tz) / (C-Tz)] x 100 For values where Ti < Tz the formula is [ (Ti-Tz) / Tz] x 100 Where Ti is the absorbance of the solubilized Sulforhodamine B (SRB) (representing the number of cells) of the five different concentrations of the compound used in the test, Tz is the absorbance of the SRB at time zero, and C is the absorbance of the SRB of the control growth.

MGH-U1R cell line = system: MGH-U1R cell line; parameters: method as in PMID 25431950; details: cited from earlier work
[2] = system: Mycobacterium tuberculosis H37Rv; test: Antimycobacterial susceptibility, BACTEC MGIT 960 SIRE; type: cell-based

COc1cccc2c1C(=O)c1c(O)c3c(c(O)c1C2=O)C[C@@](O)(C(=O)CO)C[C@@H]3O[C@H]1C[C@H](N)[C@H](O)[C@H](C)O1 [Doxorubicin, doxorubicin, reference compound]
cytotoxicity towards normal cardiac myoblast H9c2 cells [1]: potent dose dependent cytotoxic effect | resistance of MGH-U1R cell line (MGH-U1R cell line): 40 fold

CC[C@@H](CO)NCCN[C@@H](CC)CO [Ethambutol, reference compound]
Effect on M. tuberculosis H37Rv ([2]; 5 μg/mL): Inhibition

NNC(=O)c1ccncc1 [Isoniazid, reference compound]
Effect on M. tuberculosis H37Rv ([2]; 0.1 μg/mL): Inhibition

CO[C@H]1/C=C/O[C@@]2(C)Oc3c(C)c(O)c4c(O)c(c(/C=N/N5CCN(C)CC5)c(O)c4c3C2=O)NC(=O)/C(C)=C\C=C\[C@H](C)[C@H](O)[C@@H](C)[C@@H](O)[C@@H](C)[C@H](OC(C)=O)[C@@H]1C [Rifampin, reference compound]
Effect on M. tuberculosis H37Rv ([2]; 1 μg/mL): Inhibition

[H]/N=C(/N)N[C@H]1[C@H](O)[C@@H](O)[C@H](O[C@@H]2O[C@@H](C)[C@](O)(C=O)[C@H]2O[C@@H]2O[C@@H](CO)[C@H](O)[C@@H](O)[C@@H]2NC)[C@@H](N/C(N)=N\[H])[C@@H]1O [Streptomycin, reference compound]
Effect on M. tuberculosis H37Rv ([2]; 1 μg/mL): Inhibition
